Measured values published in ChEMBL document CHEMBL1148081, “Corticatic acids A-C, antifungal acetylenic acids from the marine sponge, Petrosia corticata” (J Nat Prod, 1994).
Activity calls are given as the source filed them. The rule behind the calls is not given here.

Tested on: Umbelopsis ramanniana
Assay: Antimicrobial activity against Mortierella ramanniana
Format: functional, organism-based

C#CC(O)/C=C/CCCCCC#CC/C=C\CCCCCCCCCCC/C=C\C#CC(=O)O (configuration not stated)
Activity: Active

C#CC(O)/C=C/CCCCCC#CC/C=C\CCCCCCCCCCC/C=C/C#CC(=O)O (configuration not stated)
Activity: Active
